Like-named read-outs stand apart in the source and are kept apart here. Each block holds one compound with its values, some of them ahead of it.
Tests used:
[1] = Phase 1 crossover pharmacokinetics after a single oral 20 mg dose of tablet and capsule formulations; format: in vivo, human
Method: Certain formulations provided herein were evaluated in a Phase 1, open-label, randomized, crossover study.
On Day 1 of Period 1, following an overnight fast of at least 8 hours, subjects were randomized to one of the following 3 sequences to receive Treatment A, B or C (Table 35).
In Treatment A, one 20-mg reference Compound A API-in-capsule was administered orally after at least 8 hour fast with 240 mL of non-carbonated, room temperature water. In Treatment B, one 20-mg tablet of Compound A (Tablet Formulation XIII) was administered under fasted conditions. In Treatment C, four 5-mg tablets of Compound A (Tablet Formulation XIV) were administered under fasted conditions. The 20-mg tablet and four 5-mg tablets were administered orally after at least 8 hour fast with 240 mL of non-carbonated, room temperature water.
For each period, serial blood samples were collected before dosing (zero hour) and at 0.5, 1, 1.5, 2, 2.5, 3, 4, 6, 8, 12, 24, 48, 72, and 96 hours after dosing. Plasma concentrations of Compound A were determined for determining PK parameters, such as AUC0-t, AUC0-∞, Cmax, Tmax, t1/2, CL/F, and Vz/F for Compound A. Plasma PK parameters were calculated using non compartmental methods. Analyses of variance (ANOVA) were performed on the natural log-transformed AUC0-t, AUC0-∞, and Cmax for Compound A. The geometric mean ratios (test/reference) and their 90% confidence intervals were also calculated. For Tmax, non parametric analysis was used to produce median differences.

[2] = Phase 1 food effect study (Part 2), single 20-mg oral dose of Compound A tablet, fed vs fasted; format: in vivo, human
Method: The primary objectives of this study are: to characterize the biotransformation and excretion of Compound A following a single 20 mg oral dose of Compound A capsule containing a microtracer of [^14C]-Compound A solution in healthy male subjects (Part 1) and to evaluate the effect of a high-fat meal on the pharmacokinetics (PK) of Compound A following a single oral 20-mg dose of Compound A tablet (Part 2).
Part 2 design: Part 2 will be a 2-period crossover study; in Period 1, subjects (n=12) will be randomized to receive either an oral 20 mg dose of Compound A tablet (Treatment B) under fed (n=6) or fasted (n=6) conditions. In Period 2, subjects will receive Treatment B under converse conditions based on treatment assignment in Period 1. After screening, subjects (n=12) eligible for participation in the study will return to the study center on Day −1 for baseline assessments. Subjects who continue to be qualified for participation in the study will be randomized and enrolled in the study on the morning of Day 1. Subjects (n=6) will be enrolled and randomized to receive Treatment B under fed or fasted conditions on the morning of Day 1 after fasting for at least 8 hours. Fed subjects will be served a standard high fat meal breakfast, or its equivalent, that must be consumed within 30 minutes from serving. Dosing must occur 30 minutes (±5 minutes) after serving a subject breakfast. All subjects (fed and fasted) will fast (not to consume any food) until 4 hours post dose. Water will be allowed during the fasting period. Subjects will be domiciled at the study center from Day −1 until the morning of Day 5 of each period. Subjects will be discharged from the study center on the morning of Day 5 upon satisfactory safety review and completion of study-related procedures. Safety and tolerability data will be monitored and collected following each dosing period. Periods 1 and 2 will be separated by a washout period of at least 7 days (no more than 10 days) from prior dose to the next dose. In certain instances, a longer washout may be acceptable if previously agreed to.
Serial blood samples (10 mL) will be collected at predose (0 hour) and at 0.5, 1, 2, 3, 6, 12, 24, 48, 72 and 96 hours post dose for the determination of plasma concentrations of Compound A and the O-desmethyl metabolite of Compound A. Safety will be monitored throughout the study; safety evaluations will include AE reporting, physical examinations, vital sign measurements, ECG, and clinical laboratory safety tests. Concomitant medications will be assessed and recorded throughout the study as well. In addition, during the subjects' stay-in-the clinic (i.e., confinement period), fasting plasma glucose levels will be monitored as part of the clinical laboratory safety tests. For Parts 1 and 2, all subjects will return to the clinic within 7 to 10 days after the last dose for follow up safety assessments. In the event that a subject discontinues prematurely from the study, every reasonable effort should be made (and documented) to ensure that all procedures and evaluations scheduled for the follow-up visit are performed at the time of discontinuation or a follow-up visit should be scheduled within 7 to 10 days from the discontinuation day.
Part 2 dosing: In Part 2, subjects will fast overnight for at least 8 hours prior to Compound A administration. On the morning of Day 1, each subject will receive a 20-mg tablet of Compound A orally. Subjects randomized to receive Compound A under fed conditions will be a served a standard high fat meal (breakfast).
The standard high fat meal or its equivalent must be consumed within 30 minutes of serving. Dosing must occur 30 minutes (±5 minutes) after serving the meal. The tablet will be administered with approximately 240 mL of non-carbonated, room temperature water. After dosing, subjects will continue to fast until 4 hours after dosing.

[3] = Pharmacokinetics of metabolite after 7.5-60 mg Compound A (protocol of U.S. provisional 61/653,436); format: in vivo, human; conditions: for concentration at 15 day: human, in vivo, read-out: Ctrough
Method: In certain embodiments, the pharmacokinetic parameters in connection with the metabolite of Compound A produced via administration of 7.5 mg, 15 mg, 30 mg, 45 mg and 60 mg of Compound A are obtained using the protocol set forth in Section 5.2.1 (paragraphs [00497]-[00520]) of U.S. provisional application No. 61/653,436, filed May 31, 2012, which is incorporated by reference herein in its entirety.
In certain embodiments, the pharmacokinetic parameters set forth herein are mean values obtained from multiple subjects.

[4] = Hygroscopicity by moisture adsorption/desorption (DVS); format: physicochemical
Method: Sorption isotherms were obtained using a SMS DVS Intrinsic moisture sorption analyser, controlled by DVS Intrinsic Control software v1.0.0.30. The sample temperature was maintained at 25° C. by the instrument controls. The humidity was controlled by mixing streams of dry and wet nitrogen, with a total flow rate of 200 mL/min. The relative humidity was measured by a calibrated Rotronic probe (dynamic range of 1.0-100% RH), located near the sample. The weight change, (mass relaxation) of the sample as a function of % RH was constantly monitored by the microbalance (accuracy±0.005 mg). Typically 5-20 mg of sample was placed in a tared mesh stainless steel basket under ambient conditions. The sample was loaded and unloaded at 40% RH and 25° C. (typical room conditions). The standard isotherm was performed at 25° C. at 10% RH intervals over a 0-90% RH range. Data analysis was undertaken in Microsoft Excel using DVS Analysis Suite v6.0.0.7.
Hygroscopicity of Form A was determined by moisture adsorption and desorption.

[5] = Susceptibility of Compound A to hydrolysis; format: physicochemical
[6] = fed vs fasted, 20 mg Compound A tablet, healthy adult males
[7] = plasma, single 20-mg oral dose of Compound A tablet, Fasted (n = 11)
[8] = plasma, single 20-mg oral dose of Compound A tablet, Fed, high fat meal (n = 11)
[9] = day 1 of administration of about 45 mg of Compound A
[10] = day 1 of administration of about 60 mg of Compound A
[11] = upon administration of about 45 mg of Compound A

Tax ([1]; metabolite, upon administration of about 20 mg of Compound A (protocol of Section 6.5.1)): 3 h
decrease in Cmax with a high fat meal [2, 6]: ~17%
increase in overall exposure (AUCinf) with a high fat meal [2, 6]: ~3%
CL/F (L/h), geometric mean (CV %) [2, 7]: 2.0 (38) L/h
CL/F (L/h), geometric mean (CV %) [2, 8]: 2.0 (36) L/h
t1/2 (h), geometric mean (CV %) [2, 8]: 14.9 (29) h
tin ([3]; day 1 of administration of about 30 mg of Compound A): 21 h
Tax [3, 9]: 3 h
tin [3, 9]: 17 h
Tax [3, 10]: 5 h
tin [3, 10]: 16 h
Tax ([3]; day 15 of once a day administration of about 30 mg of Compound A): 2 h
Tax ([3]; day 15 of once a day administration of about 45 mg of Compound A): 2 h
Tax ([3]; day 15 of once a day administration of about 60 mg of Compound A): 3 h
concentration at 15 day ([3]; day 15 of once a day administration of about 7.5 mg of Compound A): 267 ng/mL
concentration at 15 day ([3]; day 15 of once a day administration of about 15 mg of Compound A): 145 ng/mL
Tax [3, 11]: 3 h
t1/2 [3, 11]: 14.7 h
SMILES: CC(C)(O)c1ccc(-c2cnc3c(n2)N([C@H]2CC[C@H](O)CC2)C(=O)CN3)cn1 [O-Desmethyl metabolite, 1-((trans)-4-hydroxycyclohexyl)-7-(6-(2-hydroxypropan-2-yl)pyridin-3-yl)-3,4-dihydropyrazino[2,3-b]pyrazin-2(1H)-one]

XRPD diffractogram after full adsorption/desorption cycle ([4]; DVS cycle, 25° C.): unchanged from the initial Form A
hygroscopicity ([4]; DVS moisture sorption/desorption): not hygroscopic
water uptake ([4]; DVS, 25° C., between 0 and 80% relative humidity): < 0.1 % w/w
SMILES: CO[C@H]1CC[C@H](N2C(=O)CNc3ncc(-c4ccc(C(C)(C)O)nc4)nc32)CC1 [Form A, 7-(6-(2-hydroxypropan-2-yl)pyridin-3-yl)-1-((trans)-4-methoxycyclohexyl)-3,4-dihydropyrazino[2,3-b]pyrazin-2(1H)-one]

susceptibility to hydrolysis [5]: susceptible to hydrolysis
CL/F (L/h), geometric mean (geometric CV %) ([1]; plasma, single 20 mg oral dose of Compound A, fasted healthy adult males, Treatment A = API-in-capsule, B = one 20-mg tablet, C = four 5-mg tablets (analyte Compound A)): 20.3 (23) L/h
pharmacokinetics of tablet formulations versus API in capsule ([1]; single dose 20 mg, healthy adult male subjects): comparable
decrease in Cmax with a high fat meal [2, 6]: ~17%
delay in Tmax with a high fat meal [2, 6]: 2 h
increase in overall exposure (AUCinf) with a high fat meal [2, 6]: ~20%
CL/F (L/h), geometric mean (CV %) [2, 7]: 19.9 (38) L/h
CL/F (L/h), geometric mean (CV %) [2, 8]: 16.7 (38) L/h
SMILES: CO[C@H]1CC[C@H](N2C(=O)CNc3ncc(-c4ccc(C(C)(C)O)nc4)nc32)CC1 [Compound A, 7-(6-(2-hydroxypropan-2-yl)pyridin-3-yl)-1-((trans)-4-methoxycyclohexyl)-3,4-dihydropyrazino[2,3-b]pyrazin-2(1H)-one]

— US10052323B2, “Pharmaceutical compositions of 7-(6-(2-hydroxypropan-2-yl)pyridin-3-yl)-1-(trans)-4-methoxycyclohexyl)-3,4-dihydropyrazino [2,3-b]pyrazin-2(1H)-one, a solid form thereof and methods of their use” (Signal Pharmaceuticals, LLC, priority 2013, dated 2018)
